Read-outs that look alike come from different tables or passages of the source.
Tests used:
382 unique human kinases [1] = assay: biochemical; format: biochemical; details: cutoff of >85% inhibition at 10 μM; luminespib and ganetespib large kinome panel, others 16-kinase panel
[2] = known interaction (K) listed by CLARITY, cited from earlier work
ABL2/ARG = target: T1, ABL2/ARG (Homo sapiens, UniProt P42684); assay: HotSpot in vitro kinase radiometric assay; format: biochemical; details: 10uM, ATP 30 uM, Data 1, Data 2
T1 construct: purchased Reaction Biology (HotSpot contract assay)

BLK = target: T2, BLK (Homo sapiens, UniProt P51451); assay: HotSpot in vitro kinase radiometric assay; format: biochemical; details: 10uM, ATP 10 uM, Data 1, Data 2
T2 construct: purchased Reaction Biology (HotSpot contract assay)
Experimental: (§1) Accordingly, we selected five additional representative HSP90 inhibitors, at least one from each chemical class, including both synthetic inhibitors and natural products. […]
(§2) This radioisotope binding assay was designed to directly detect the true product without the use of modified substrates, coupling enzymes, or detection antibodies thus enabling to directly measure inhibition of catalytic activity. Test or control compounds were incubated with kinase, substrate, cofactors, and radioisotope-labeled ATP (32P-ɣ-ATP or 33P-ɣ-ATP). The reaction mixtures were then spotted onto filter papers, which bind the radioisotope-labeled catalytic product.

LYN B = target: T3, LYN B (Homo sapiens, UniProt P07948); assay: HotSpot in vitro kinase radiometric assay; format: biochemical; details: 10uM, ATP 20 uM, Data 1, Data 2
T3 construct: purchased Reaction Biology (HotSpot contract assay)
Experimental: as §1, §2

PDK2/PDHK2 = target: T4, PDK2/PDHK2 (Homo sapiens, UniProt Q15119); assay: HotSpot in vitro kinase radiometric assay; format: biochemical; details: 10uM, ATP 15 uM, Data 1, Data 2
T4 construct: purchased Reaction Biology (HotSpot contract assay)
Experimental: as §1, §2

PDK4/PDKH4 = target: T5, PDK4/PDKH4 (Homo sapiens, UniProt Q16654); assay: HotSpot in vitro kinase radiometric assay; format: biochemical; details: 10uM, ATP 30 uM, Data 1, Data 2
T5 construct: purchased Reaction Biology (HotSpot contract assay)
Experimental: as §1, §2

c-Src = target: T6, c-Src (Homo sapiens, UniProt P12931); assay: HotSpot in vitro kinase radiometric assay; format: biochemical; details: 10uM, ATP 15 uM, Data 1, Data 2
T6 construct: purchased Reaction Biology (HotSpot contract assay)
Experimental: as §1, §2

PEAK1 = target: T7, PEAK1 (Homo sapiens, UniProt Q9H792); assay: HotSpot in vitro kinase radiometric assay; format: biochemical; details: 10uM, ATP 30 uM, Data 1, Data 2
T7 construct: purchased Reaction Biology (HotSpot contract assay)

FGR = target: T8, FGR (Homo sapiens, UniProt P09769); assay: HotSpot in vitro kinase radiometric assay; format: biochemical; details: 10uM, ATP 50 uM, Data 1, Data 2
T8 construct: purchased Reaction Biology (HotSpot contract assay)

FYN = target: T9, FYN (Homo sapiens, UniProt P06241); assay: HotSpot in vitro kinase radiometric assay; format: biochemical; details: 10uM, ATP 30 uM, Data 1, Data 2
T9 construct: purchased Reaction Biology (HotSpot contract assay)

PASK = target: T10, PASK (Homo sapiens, UniProt Q96RG2); assay: HotSpot in vitro kinase radiometric assay; format: biochemical; details: 10uM, ATP 50 uM, Data 1, Data 2
T10 construct: purchased Reaction Biology (HotSpot contract assay)
Description: (§3) Accordingly, we selected five additional representative HSP90 inhibitors, at least one from each chemical class, including both synthetic inhibitors and natural products.
(§4) Accordingly, we screened the hit compound and the two leads for kinase off-target inhibition using the 16-kinase panel and the same in vitro catalytic assay used previously.
as §2

TRKA = target: T11, TRKA (Homo sapiens, UniProt P04629); assay: HotSpot in vitro kinase radiometric assay; format: biochemical; details: 10uM, ATP 100 uM, Data 1, Data 2
T11 construct: purchased Reaction Biology (HotSpot contract assay)
Description: as §3, §4, §2

TRKC = target: T12, TRKC (Homo sapiens, UniProt Q16288); assay: HotSpot in vitro kinase radiometric assay; format: biochemical; details: 10uM, ATP 100 uM, Data 1, Data 2
T12 construct: purchased Reaction Biology (HotSpot contract assay)

LCK = target: T13, LCK (Homo sapiens, UniProt P06239); assay: HotSpot in vitro kinase radiometric assay; format: biochemical; details: 10uM, ATP 15 uM, Data 1, Data 2
T13 construct: purchased Reaction Biology (HotSpot contract assay)

YES/YES1 = target: T14, YES/YES1 (Homo sapiens, UniProt P07947); assay: HotSpot in vitro kinase radiometric assay; format: biochemical; details: 10uM, ATP 50 uM, Data 1, Data 2
T14 construct: purchased Reaction Biology (HotSpot contract assay)

16-kinase panel = 16-kinase panel screening, in vitro radiometric assay; format: biochemical, human; details: 10 μM
HSP90AA1 = details: average of reported values; ref ChEMBL23 (accessed: 23/08/2018); cited from earlier work
HSP90AB1 = test system: HSP90AB1; parameters: method as in ChEMBL23 (accessed: 23/08/2018); details: average of reported values; ref ChEMBL23 (accessed: 23/08/2018); cited from earlier work
TRAP1 = test system: TRAP1; parameters: method as in ChEMBL23 (accessed: 23/08/2018); details: average of reported values; ref ChEMBL23 (accessed: 23/08/2018); cited from earlier work
ABL1 = ABL1 (Homo sapiens, UniProt P00519); assay: HotSpot in vitro kinase radiometric assay; format: biochemical; parameters: purchased Reaction Biology (HotSpot contract assay); details: 10uM, ATP 40 uM, Data 1, Data 2
DDR1 = DDR1 (Homo sapiens, UniProt Q08345); assay: HotSpot in vitro kinase radiometric assay; format: biochemical; parameters: purchased Reaction Biology (HotSpot contract assay); details: 10uM, ATP 100 uM, Data 1, Data 2
382 unique human kinases [3] = target: T15, 382 unique human kinases (Homo sapiens, UniProt Q9BQI3); assay: biochemical; format: biochemical; details: EIF2AK1; read-out: Control Compound IC50*
T15 construct: purchased Reaction Biology (HotSpot contract assay)

382 unique human kinases [4] = target: T16, 382 unique human kinases (Homo sapiens, UniProt P37173); assay: biochemical; format: biochemical; details: kinase TGFBR2; read-out: Control Compound IC50*
T16 construct: purchased Reaction Biology (HotSpot contract assay)

382 unique human kinases [5] = target: T17, 382 unique human kinases (Homo sapiens, UniProt Q96QT4); assay: biochemical; format: biochemical; details: kinase TRPM7/CHAK1; read-out: Control Compound IC50*
T17 construct: purchased Reaction Biology (HotSpot contract assay)

T10 sequence (Q96RG2 whole entry): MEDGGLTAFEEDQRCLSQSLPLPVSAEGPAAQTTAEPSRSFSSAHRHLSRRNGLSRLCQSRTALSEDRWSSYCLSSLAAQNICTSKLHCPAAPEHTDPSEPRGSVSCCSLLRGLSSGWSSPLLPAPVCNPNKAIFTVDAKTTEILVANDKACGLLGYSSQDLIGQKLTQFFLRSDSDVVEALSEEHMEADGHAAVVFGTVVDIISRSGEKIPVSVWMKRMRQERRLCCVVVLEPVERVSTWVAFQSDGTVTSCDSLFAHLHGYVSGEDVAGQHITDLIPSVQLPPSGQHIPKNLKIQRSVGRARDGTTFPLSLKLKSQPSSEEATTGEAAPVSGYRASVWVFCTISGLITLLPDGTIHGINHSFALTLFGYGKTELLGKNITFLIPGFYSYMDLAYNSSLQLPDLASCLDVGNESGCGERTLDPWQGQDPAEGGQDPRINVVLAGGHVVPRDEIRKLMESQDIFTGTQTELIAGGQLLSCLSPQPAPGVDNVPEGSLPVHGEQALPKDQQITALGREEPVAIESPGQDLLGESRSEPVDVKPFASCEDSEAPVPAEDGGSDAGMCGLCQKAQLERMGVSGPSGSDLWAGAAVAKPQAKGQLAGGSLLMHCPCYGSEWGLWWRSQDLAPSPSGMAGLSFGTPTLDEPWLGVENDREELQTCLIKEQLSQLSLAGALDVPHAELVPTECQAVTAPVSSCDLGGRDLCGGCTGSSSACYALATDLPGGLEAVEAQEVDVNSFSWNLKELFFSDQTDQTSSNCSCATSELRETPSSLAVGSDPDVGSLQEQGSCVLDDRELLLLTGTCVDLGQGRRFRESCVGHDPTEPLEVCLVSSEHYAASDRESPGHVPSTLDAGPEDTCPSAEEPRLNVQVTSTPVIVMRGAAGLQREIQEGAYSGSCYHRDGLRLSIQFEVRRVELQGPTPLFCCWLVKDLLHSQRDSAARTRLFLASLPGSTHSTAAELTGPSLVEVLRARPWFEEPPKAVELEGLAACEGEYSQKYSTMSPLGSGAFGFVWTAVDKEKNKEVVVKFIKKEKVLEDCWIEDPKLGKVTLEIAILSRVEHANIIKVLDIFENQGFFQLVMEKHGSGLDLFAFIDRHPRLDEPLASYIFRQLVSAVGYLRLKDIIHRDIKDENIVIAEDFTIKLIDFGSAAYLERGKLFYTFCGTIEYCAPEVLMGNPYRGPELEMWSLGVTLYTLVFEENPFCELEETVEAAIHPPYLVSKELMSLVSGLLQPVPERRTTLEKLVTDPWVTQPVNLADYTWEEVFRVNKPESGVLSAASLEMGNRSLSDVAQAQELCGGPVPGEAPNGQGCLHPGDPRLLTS
ABL1, sequence (P00519 whole entry): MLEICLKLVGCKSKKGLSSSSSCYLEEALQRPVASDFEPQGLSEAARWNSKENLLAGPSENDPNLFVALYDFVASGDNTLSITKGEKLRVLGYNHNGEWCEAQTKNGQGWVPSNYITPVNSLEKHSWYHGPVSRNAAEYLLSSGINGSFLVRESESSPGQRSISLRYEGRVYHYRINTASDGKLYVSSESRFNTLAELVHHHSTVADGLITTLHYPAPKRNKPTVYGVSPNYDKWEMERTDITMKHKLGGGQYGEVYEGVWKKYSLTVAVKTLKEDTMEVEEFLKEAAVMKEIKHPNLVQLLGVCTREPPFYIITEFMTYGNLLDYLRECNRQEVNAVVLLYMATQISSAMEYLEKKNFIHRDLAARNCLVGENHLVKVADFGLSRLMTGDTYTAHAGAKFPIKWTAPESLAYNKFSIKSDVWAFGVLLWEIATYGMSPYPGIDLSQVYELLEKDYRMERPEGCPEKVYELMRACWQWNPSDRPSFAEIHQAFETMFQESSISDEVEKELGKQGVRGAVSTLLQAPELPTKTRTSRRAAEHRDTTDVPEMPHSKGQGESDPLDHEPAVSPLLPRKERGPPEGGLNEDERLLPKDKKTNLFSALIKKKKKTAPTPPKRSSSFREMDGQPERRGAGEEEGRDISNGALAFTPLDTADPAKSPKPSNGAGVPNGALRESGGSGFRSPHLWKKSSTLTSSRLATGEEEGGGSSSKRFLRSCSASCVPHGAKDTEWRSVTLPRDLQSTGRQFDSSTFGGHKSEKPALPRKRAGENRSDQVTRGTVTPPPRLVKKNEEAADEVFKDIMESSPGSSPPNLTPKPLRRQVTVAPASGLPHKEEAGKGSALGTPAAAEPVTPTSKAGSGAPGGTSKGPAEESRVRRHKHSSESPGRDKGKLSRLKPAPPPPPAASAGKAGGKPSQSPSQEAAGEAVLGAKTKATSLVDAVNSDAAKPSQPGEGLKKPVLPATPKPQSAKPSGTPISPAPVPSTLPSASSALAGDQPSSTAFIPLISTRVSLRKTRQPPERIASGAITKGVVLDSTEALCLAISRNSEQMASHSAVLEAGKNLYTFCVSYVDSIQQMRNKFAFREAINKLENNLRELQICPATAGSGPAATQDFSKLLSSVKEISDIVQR
T12 sequence (Q16288 32-839): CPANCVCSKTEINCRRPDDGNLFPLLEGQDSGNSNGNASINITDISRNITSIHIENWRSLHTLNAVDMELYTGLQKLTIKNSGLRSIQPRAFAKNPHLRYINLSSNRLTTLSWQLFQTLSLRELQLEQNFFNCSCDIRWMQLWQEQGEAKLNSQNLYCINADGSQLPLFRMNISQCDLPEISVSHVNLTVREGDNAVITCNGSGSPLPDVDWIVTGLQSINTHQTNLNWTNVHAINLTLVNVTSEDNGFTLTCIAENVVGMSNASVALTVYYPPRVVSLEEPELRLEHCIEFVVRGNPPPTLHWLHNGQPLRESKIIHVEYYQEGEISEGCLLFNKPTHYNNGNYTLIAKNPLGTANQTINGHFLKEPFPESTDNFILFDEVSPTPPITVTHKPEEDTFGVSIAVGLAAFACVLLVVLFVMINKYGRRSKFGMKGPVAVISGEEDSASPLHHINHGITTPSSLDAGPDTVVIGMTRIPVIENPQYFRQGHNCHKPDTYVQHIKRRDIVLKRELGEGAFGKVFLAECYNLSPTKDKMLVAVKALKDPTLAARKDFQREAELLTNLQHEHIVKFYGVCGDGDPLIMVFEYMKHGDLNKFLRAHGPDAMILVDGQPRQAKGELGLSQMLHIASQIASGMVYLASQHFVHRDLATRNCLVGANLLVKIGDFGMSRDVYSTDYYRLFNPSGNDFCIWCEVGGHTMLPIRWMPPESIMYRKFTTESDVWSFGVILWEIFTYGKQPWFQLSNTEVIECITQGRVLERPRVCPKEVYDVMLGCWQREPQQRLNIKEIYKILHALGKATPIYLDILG
T5 sequence (Q16654 whole entry): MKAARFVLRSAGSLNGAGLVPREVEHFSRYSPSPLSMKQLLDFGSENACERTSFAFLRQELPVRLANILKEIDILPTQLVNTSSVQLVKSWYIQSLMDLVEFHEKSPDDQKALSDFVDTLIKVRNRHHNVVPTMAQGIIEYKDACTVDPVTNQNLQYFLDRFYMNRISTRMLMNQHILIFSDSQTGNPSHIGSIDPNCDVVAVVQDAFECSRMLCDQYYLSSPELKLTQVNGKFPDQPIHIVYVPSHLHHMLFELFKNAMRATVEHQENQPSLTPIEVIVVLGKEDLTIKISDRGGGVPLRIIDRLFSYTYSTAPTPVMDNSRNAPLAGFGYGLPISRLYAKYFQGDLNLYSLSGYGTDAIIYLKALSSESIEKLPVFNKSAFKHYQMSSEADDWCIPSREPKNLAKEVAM
T8 sequence (P09769 whole entry): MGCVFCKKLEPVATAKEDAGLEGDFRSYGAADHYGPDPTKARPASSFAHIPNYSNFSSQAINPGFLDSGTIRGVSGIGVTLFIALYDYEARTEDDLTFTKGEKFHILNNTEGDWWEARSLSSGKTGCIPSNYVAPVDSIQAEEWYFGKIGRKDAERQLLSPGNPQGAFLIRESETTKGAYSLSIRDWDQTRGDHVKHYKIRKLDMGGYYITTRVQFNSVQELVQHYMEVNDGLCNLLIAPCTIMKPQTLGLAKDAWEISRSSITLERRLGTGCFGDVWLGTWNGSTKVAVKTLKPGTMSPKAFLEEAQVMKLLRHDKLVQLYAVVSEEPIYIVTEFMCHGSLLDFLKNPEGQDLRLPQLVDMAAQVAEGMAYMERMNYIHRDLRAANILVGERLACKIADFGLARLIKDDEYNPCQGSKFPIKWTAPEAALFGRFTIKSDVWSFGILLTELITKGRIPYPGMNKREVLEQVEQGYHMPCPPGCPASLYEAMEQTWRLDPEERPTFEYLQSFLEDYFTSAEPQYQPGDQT
T11 sequence (P04629 33-796): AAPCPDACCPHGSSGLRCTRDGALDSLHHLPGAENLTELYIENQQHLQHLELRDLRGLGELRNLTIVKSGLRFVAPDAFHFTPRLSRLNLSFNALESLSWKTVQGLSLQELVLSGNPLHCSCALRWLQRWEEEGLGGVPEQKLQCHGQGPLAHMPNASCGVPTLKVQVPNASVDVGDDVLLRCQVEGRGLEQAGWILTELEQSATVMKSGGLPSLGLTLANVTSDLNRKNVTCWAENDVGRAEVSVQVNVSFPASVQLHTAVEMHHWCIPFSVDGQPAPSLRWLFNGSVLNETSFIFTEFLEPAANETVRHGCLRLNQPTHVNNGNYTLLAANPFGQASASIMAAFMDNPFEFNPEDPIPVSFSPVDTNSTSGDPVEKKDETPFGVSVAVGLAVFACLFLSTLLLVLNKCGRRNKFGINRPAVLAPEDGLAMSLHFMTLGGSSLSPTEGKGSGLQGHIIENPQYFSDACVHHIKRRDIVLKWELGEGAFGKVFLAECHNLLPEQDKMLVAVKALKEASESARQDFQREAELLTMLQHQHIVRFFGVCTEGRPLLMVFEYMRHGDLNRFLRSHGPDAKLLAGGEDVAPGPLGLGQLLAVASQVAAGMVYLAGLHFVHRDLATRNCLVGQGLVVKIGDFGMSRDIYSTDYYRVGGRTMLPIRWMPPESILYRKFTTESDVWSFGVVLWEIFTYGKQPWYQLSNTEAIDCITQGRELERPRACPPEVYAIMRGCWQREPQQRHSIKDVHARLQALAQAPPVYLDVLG

COc1c(C)cnc(Cn2cnc3c(Cl)nc(N)nc32)c1C [BIIB021]
number of off-target kinases experimentally identified, In vitro binding (KinomeSCAN) (382 unique human kinases [1]): 0 | pACT(exp) ([2]; Endoplasmin (P14625)): 6.8 | pACT(exp) ([2]; Heat shock protein 75 kDa, mitochondrial (Q12931)): 7.1 | pACT(exp) ([2]; Heat shock protein HSP 90-alpha (P07900)): 8.1 | pACT(exp) ([2]; Heat shock protein HSP 90-beta (P08238)): 7.8

CN(C)c1cc2c(cc1Sc1nc3c(N)nccc3n1CCNCC(C)(C)C)OCO2 [Debio-0932]
% Enzyme Activity (relative to DMSO controls) (ABL2/ARG; ABL2/ARG): 106.65% | remaining activity at 10 µM (ABL2/ARG; read-out: % Enzyme Activity (relative to DMSO controls), ABL2/ARG): 107% | % Enzyme Activity (relative to DMSO controls) (BLK; BLK): 109.86% | remaining activity at 10 µM (BLK; read-out: % Enzyme Activity (relative to DMSO controls), BLK): 110% | % Enzyme Activity (relative to DMSO controls) (LYN B; LYN B): 101.36% | remaining activity at 10 µM (LYN B; read-out: % Enzyme Activity (relative to DMSO controls), LYN B): 101% | % Enzyme Activity (relative to DMSO controls) (PDK2/PDHK2; PDK2/PDHK2): 100.31% | remaining activity at 10 µM (PDK2/PDHK2; read-out: % Enzyme Activity (relative to DMSO controls), PDK2/PDHK2): 108% | % Enzyme Activity (relative to DMSO controls) (PDK4/PDKH4; PDK4/PDKH4): 111.02% | remaining activity at 10 µM (PDK4/PDKH4; read-out: % Enzyme Activity (relative to DMSO controls), PDK4/PDKH4): 111% | % Enzyme Activity (relative to DMSO controls) (c-Src; c-Src): 109.48% | remaining activity at 10 µM (c-Src; read-out: % Enzyme Activity (relative to DMSO controls), c-Src): 107% | % Enzyme Activity (relative to DMSO controls) (PEAK1; PEAK1): 103.94% | remaining activity at 10 µM (PEAK1; read-out: % Enzyme Activity (relative to DMSO controls), PEAK1): 104% | % Enzyme Activity (relative to DMSO controls) (FGR; FGR): 101.88% | remaining activity at 10 µM (FGR; read-out: % Enzyme Activity (relative to DMSO controls), FGR): 102% | % Enzyme Activity (relative to DMSO controls) (FYN; FYN): 102.22% | remaining activity at 10 µM (FYN; read-out: % Enzyme Activity (relative to DMSO controls), FYN): 103% | % Enzyme Activity (relative to DMSO controls) (PASK; PASK): 102.33% | remaining activity at 10 µM (PASK; read-out: % Enzyme Activity (relative to DMSO controls), PASK): 101% | % Enzyme Activity (relative to DMSO controls) (TRKA; TRKA): 103.51% | remaining activity at 10 µM (TRKA; read-out: % Enzyme Activity (relative to DMSO controls), TRKA): 104% | % Enzyme Activity (relative to DMSO controls) (TRKC; TRKC): 97.21% | remaining activity at 10 µM (TRKC; read-out: % Enzyme Activity (relative to DMSO controls), TRKC): 93.3% | % Enzyme Activity (relative to DMSO controls) (LCK; LCK): 109.56% | remaining activity at 10 µM (LCK; read-out: % Enzyme Activity (relative to DMSO controls), LCK): 110% | % Enzyme Activity (relative to DMSO controls) (YES/YES1; YES/YES1): 102.37% | remaining activity at 10 µM (YES/YES1; read-out: % Enzyme Activity (relative to DMSO controls), YES/YES1): 96% | number of off-target kinases experimentally identified, In vitro binding (KinomeSCAN) (382 unique human kinases [1]): 0 | activity against the 16-kinase panel (16-kinase panel): inactive | pActivity, HSP90AA1 (HSP90AA1): 7.48 | pActivity, HSP90AB1 (HSP90AB1): 7.42 | pActivity, TRAP1 (TRAP1): 5.8 | % Enzyme Activity (relative to DMSO controls) (ABL1; ABL1): 104.74% | remaining activity at 10 µM (ABL1; read-out: % Enzyme Activity (relative to DMSO controls), ABL1): 111% | % Enzyme Activity (relative to DMSO controls) (DDR1; DDR1): 85.1% | remaining activity at 10 µM (DDR1; read-out: % Enzyme Activity (relative to DMSO controls), DDR1): 94.8%

Cn1cc(-c2ccc3c(c2)CCN3C(=O)Cc2cccc(C(F)(F)F)c2)c2c(N)ncnc21 [GSK-2606414]
IC50 (382 unique human kinases [3]): 92.1 nM

c1ccc2c(-c3cnn4cc(-c5ccc(N6CCNCC6)cc5)cnc34)ccnc2c1 [LDN193189]
IC50 (382 unique human kinases [4]): 165 nM

CCCCCCCCCCCCCCCCn1cc[n+](Cc2ccccc2)c1C [NH125]
IC50 (382 unique human kinases [5]): 9950 nM

From paper PMC8550792, “Evolution of kinase polypharmacology across HSP90 drug discovery” (Cell Chemical Biology, 2021)
